Measurements taken from patent US20250051762A1, “PLATFORM USING DNA-ENCODED SMALL MOLECULE LIBRARIES AND RNA SELECTION TO DESIGN SMALL MOLECULES THAT TARGET RNA” (University of Florida Research Foundation, Incorporated, priority 2021, published 2025).

Legend:
[1] = tested on: 3×3 ILL; assay: 2DCS selection of microarray-immobilized compounds with 32P-labeled 3×3 ILL, Hit-StARTS analysis of RNA-seq; assay type: binding; details: Zobs >4
Description: The interaction landscape for the ten representative DEL compounds emerging from the FACS screen were then defined by 2DCS (22). In 2DCS, small molecules are site-specifically conjugated to a microarray surface and then probed for binding to an RNA library under highly stringent conditions (FIGS. 2-B & S6). That is, the array is co-incubated with a radioactively labeled RNA library and an excess of competitor oligonucleotides that mimic regions common to all library members. […] To enable site-specific immobilization of compounds 1-10, a C-terminal alkyne handle was installed for CuAAC click (30) coupling to azide-displaying array surfaces. Installation of the alkyne was accomplished by coupling of bromoacetic acid onto rink amide resin followed by nucleophilic displacement with propargylamine prior to the synthesis of the SPDEL compounds (FIG. 2A).
All ten compounds bound to the 3×3 ILL under the highly stringent conditions described above, almost all dose-dependently (FIG. 2B). The RNAs bound to each small molecule were harvested, reverse transcribed into DNA, and sequenced by RNA-seq. The resulting data set was statistically analyzed by using High Throughput Structure-Activity Relationships Through Sequencing (Hit-StARTS) (31) in which the relative frequency of each selected RNA is compared to the frequency of that RNA in the starting library (pooled population comparison). (31) The statistical significance of the enrichment of selected RNAs is quantified by Zobs, which correlates with affinity and selectivity. (31) Here, a cut-off of Zobs >4 was employed, which was empirically determined from measured affinities via evaluation of compound 9 binding with potential RNA motifs extracted from the 2DCS (FIGS. 2-B, 13, & 14). […] This cut-off afforded, on average, 60±40 (range: 6-155) preferred, or privileged, RNA 3D folds for each compound. Compound 6 bound to largest number of RNA targets (n=155) while compound 9 bound the fewest (n=6) (FIG. 14). […]

[2] = tested on: pri-miR-27a; assay: RT-qPCR of pri- and mature miR-27a in MCF-7 cells; assay type: cell-based, human; details: MCF-7, RT-qPCR
Description: Cell lines. Compounds were tested in MDA-MB-231 TNBC cells (HTB-26, ATCC), LNCaP metastatic prostate cancer cells (gifted from Junli Luo lab), MCF-7 (HTB-22, ATCC) breast cancer cells, HeLa cervical adenocarcinoma cells (CCL-2, ATCC), and MCF-10a, a model of healthy breast epithelial cells (CRL-10317, ATCC).
Cell culture and compound treatment. All cells were maintained at 37° C. with 5% CO2. MDA-MB-231 and LNCaP cells were cultured in RPMI 1640 medium with L-glutamine & 25 mM HEPES (Corning) supplemented with 10% (v/v) fetal bovine serum (FBS; Sigma) and 1× (v/v) Antibiotic-Antimycotic solution (Corning). MCF-7 and HeLa cells were cultured in DMEM medium with 4.5 g/L glucose (Corning), supplemented with 10% FBS, 1× (v/v) Glutagro (Corning), and 1× (v/v) Antibiotic-Antimycotic solution. […]
Analysis of mRNA abundance: Each cell line was grown as a monolayer in 12- or 24-well plates and treated as described in “Cell culture and compound treatment”. […] Relative abundance of mature miRNAs was calculated by normalizing to RNU6, and relative abundance for pri-miRNAs and mRNAs was calculated by normalizing to 18S ribosomal RNA, using the AAC, method. […]

Question: With `C#CCN(CC(N)=O)C(=O)C[C@H](Cc1c[nH]c2ccccc12)NC(=O)[C@@H]1C[C@H](NC(=O)Cn2c(=O)[nH]c3ccccc3c2=O)CN1` [Compound 9] as the compound, how does the “number of RNA motifs bound that are unique to the compound” value [1] read?
Answer: 2

Question: And the “dose with significant inhibition of miR-27a processing” value [2]?
Answer: 100 nM
